Experiments:
wheat = experiment: Test B pre/postemergence wheat; assay type: in vivo, Triticum aestivum
Method in brief: (§1)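 Test chemicals in a non-phytotoxic solvent mixture with surfactant were sprayed preemergence onto planted seeds and postemergence onto plants 2 to 18 cm tall (1- to 4-leaf stage). After twelve to sixteen days in a greenhouse, injury was visually rated against untreated controls from 0 (no effect) to 10 (complete control).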

purple nutsedge = experiment: Test B pre/postemergence purple nutsedge; assay type: in vivo, Cyperus rotundus
Method in brief: as §1

morningglory = experiment: Test B pre/postemergence morningglory; assay type: in vivo, Ipomoea hederacea
Method in brief: as §1

cocklebur = experiment: Test B pre/postemergence cocklebur; assay type: in vivo, Xanthium strumarium
Method in brief: as §1

duck salad = experiment: Test B flood test duck salad; assay type: in vivo, Heteranthera limosa
Method in brief: (§2)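 Plants were grown to the 2-leaf stage before treatment with test chemical, then held in a greenhouse for twelve to sixteen days. Injury was visually rated against untreated controls on a 0–10 scale, where 0 is no effect and 10 is complete control.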

crabgrass = experiment: Test B pre/postemergence crabgrass; assay type: in vivo, Digitaria sanguinalis
Method in brief: as §1

wild oat = experiment: Test B pre/postemergence wild oat; assay type: in vivo, Avena fatua
Method in brief: as §1

rape = experiment: Test B pre/postemergence rape; assay type: in vivo, Brassica napus
Method in brief: as §1

rice = experiment: Test B flood test rice; assay type: in vivo, Oryza sativa
Method in brief: as §2

sugar beet = experiment: Test B pre/postemergence sugar beet; assay type: in vivo, Beta vulgaris
Method in brief: as §1

soybean = experiment: Test B pre/postemergence soybean; assay type: in vivo, Glycine max
Method in brief: as §1

velvetleaf = experiment: Test B pre/postemergence velvetleaf; assay type: in vivo, Abutilon theophrasti
Method in brief: as §1

pigweed = experiment: Test B pre/postemergence pigweed; assay type: in vivo, Amaranthus retroflexus
Method in brief: as §1

smallflower flatsedge = experiment: Test B flood test smallflower flatsedge; assay type: in vivo, Cyperus difformis
Method in brief: as §2

corn = experiment: Test B pre/postemergence corn; assay type: in vivo, Zea mays
Method in brief: as §1

giant foxtail = experiment: Test B pre/postemergence giant foxtail; assay type: in vivo, Setaria faberii
Method in brief: as §1

[1] = Preemergence, Rate 62 g/ha, scale of 0 to 10 where 0 is no effect and 10 is complete control
[2] = Preemergence, Rate 250 g/ha, scale 0 to 10, 0 is no effect, 10 is complete control
[3] = Preemergence, Rate 500 g/ha, scale of 0 to 10 where 0 is no effect and 10 is complete control
[4] = Rate 62 g/ha, Postemergence, scale of 0 to 10 where 0 is no effect and 10 is complete control
[5] = Rate 125 g/ha, Postemergence, scale 0 to 10
[6] = Preemergence, Rate 125 g/ha, 0 is no effect, 10 is complete control
[7] = Rate 500 g/ha, Postemergence, scale 0 to 10
[8] = Rate 31 g/ha, Pre-emergence section (flood test species), scale 0 to 10
[9] = Rate 62 g/ha, headed Pre-emergence (flood test species), scale 0 to 10 (0 no effect, 10 complete control)
[10] = Rate 125 g/ha, Pre-emergence, flood test species, scale 0 to 10 where 0 is no effect and 10 is complete control
[11] = Rate 250 g/ha, Pre-emergence, flood-test species, scale 0 to 10, 0 is no effect, 10 is complete control
[12] = Rate 500 g/ha, headed Pre-emergence (flood test species), scale 0 to 10 (0 no effect, 10 complete control)

Cc1nc(C)c(-n2c(=O)on(C(=O)N(c3ccc(Cl)cc3)C(C)C)c2=O)s1 [Compound 196]
0: Wheat plant response rating (wheat; [1]) | Wheat plant response rating (wheat; [2]) | Plant response rating, Wheat (wheat; [3]) | Wheat plant response rating (wheat; [4]) | Wheat plant response rating (wheat; [5]) | Plant response rating (0 to 10; 0 is no effect, 10 is complete control), Wheat (wheat; Rate 250 g/ha, Postemergence) | Nutsedge plant response rating (purple nutsedge; [1]) | Nutsedge plant response rating (0 to 10 scale) (purple nutsedge; [6]) | Nutsedge plant response rating (purple nutsedge; [2]) | Plant response rating, Nutsedge (purple nutsedge; [3]) | Nutsedge plant response rating (purple nutsedge; [4]) | Nutsedge plant response rating (purple nutsedge; [5]) | Plant response rating (0 to 10; 0 is no effect, 10 is complete control), Nutsedge (purple nutsedge; Rate 250 g/ha, Postemergence) | Nutsedge plant response rating (purple nutsedge; [7]) | Morningglory plant response rating (morningglory; [1]) | Morningglory plant response rating (0 to 10 scale) (morningglory; [6]) | Morningglory plant response rating (morningglory; [2]) | Plant response rating, Morningglory (morningglory; [3]) | Morningglory plant response rating (morningglory; [4]) | Morningglory plant response rating (morningglory; [5]) | Plant response rating (0 to 10; 0 is no effect, 10 is complete control), Morningglory (morningglory; Rate 250 g/ha, Postemergence) | Morningglory plant response rating (morningglory; [7]) | Cocklebur plant response rating (cocklebur; [1]) | Cocklebur plant response rating (0 to 10 scale) (cocklebur; [6]) | Cocklebur plant response rating (cocklebur; [2]) | Plant response rating, Cocklebur (cocklebur; [3]) | Cocklebur plant response rating (cocklebur; [4]) | Cocklebur plant response rating (cocklebur; [5]) | Plant response rating (0 to 10; 0 is no effect, 10 is complete control), Cocklebur (cocklebur; Rate 250 g/ha, Postemergence) | Cocklebur plant response rating (cocklebur; [7]) | Ducksalad plant response rating (duck salad; [8]) | Ducksalad plant response rating (duck salad; [9]) | Ducksalad plant response rating (duck salad; [10]) | Ducksalad plant response rating (duck salad; [11]) | Plant response rating, Ducksalad (duck salad; [12]) | Crabgrass plant response rating (crabgrass; [1]) | Crabgrass plant response rating (0 to 10 scale) (crabgrass; [6]) | Crabgrass plant response rating (crabgrass; [2]) | Plant response rating, Crabgrass (crabgrass; [3]) | Crabgrass plant response rating (crabgrass; [4]) | Crabgrass plant response rating (crabgrass; [5]) | Plant response rating (0 to 10; 0 is no effect, 10 is complete control), Crabgrass (crabgrass; Rate 250 g/ha, Postemergence) | Crabgrass plant response rating (crabgrass; [7]) | Wild oats plant response rating (wild oat; [1]) | Wild oats plant response rating (wild oat; [2]) | Plant response rating, Wild oats (wild oat; [3]) | Wild oats plant response rating (wild oat; [4]) | Wild oats plant response rating (wild oat; [5]) | Plant response rating (0 to 10; 0 is no effect, 10 is complete control), Wild oats (wild oat; Rate 250 g/ha, Postemergence) | Rape plant response rating (rape; [1]) | Rape plant response rating (0 to 10 scale) (rape; [6]) | Rape plant response rating (rape; [2]) | Plant response rating, Rape (rape; [3]) | Rape plant response rating (rape; [4]) | Rape plant response rating (rape; [5]) | Plant response rating (0 to 10; 0 is no effect, 10 is complete control), Rape (rape; Rate 250 g/ha, Postemergence) | Rape plant response rating (rape; [7]) | Rice plant response rating (rice; [8]) | Rice plant response rating (rice; [9]) | Rice plant response rating (rice; [10]) | Rice plant response rating (rice; [11]) | Plant response rating, Rice (rice; [12]) | Sugarbeets plant response rating (sugar beet; [1]) | Sugarbeets plant response rating (0 to 10 scale) (sugar beet; [6]) | Sugarbeets plant response rating (sugar beet; [2]) | Plant response rating, Sugarbeets (sugar beet; [3]) | Sugarbeets plant response rating (sugar beet; [4]) | Sugarbeets plant response rating (sugar beet; [5]) | Plant response rating (0 to 10; 0 is no effect, 10 is complete control), Sugarbeets (sugar beet; Rate 250 g/ha, Postemergence) | Sugarbeets plant response rating (sugar beet; [7]) | Soybean plant response rating (soybean; [1]) | Soybean plant response rating (0 to 10 scale) (soybean; [6]) | Soybean plant response rating (soybean; [2]) | Plant response rating, Soybean (soybean; [3]) | Soybean plant response rating (soybean; [4]) | Soybean plant response rating (soybean; [5]) | Plant response rating (0 to 10; 0 is no effect, 10 is complete control), Soybean (soybean; Rate 250 g/ha, Postemergence) | Soybean plant response rating (soybean; [7]) | Velvetleaf plant response rating (velvetleaf; [1]) | Velvetleaf plant response rating (velvetleaf; [2]) | Plant response rating, Velvetleaf (velvetleaf; [3]) | Velvetleaf plant response rating (velvetleaf; [4]) | Velvetleaf plant response rating (velvetleaf; [5]) | Plant response rating (0 to 10; 0 is no effect, 10 is complete control), Velvetleaf (velvetleaf; Rate 250 g/ha, Postemergence) | Redroot pigweed plant response rating (pigweed; [1]) | Redroot pigweed plant response rating (0 to 10 scale) (pigweed; [6]) | Redroot pigweed plant response rating (pigweed; [2]) | Plant response rating, Redroot pigweed (pigweed; [3]) | Redroot pigweed plant response rating (pigweed; [4]) | Redroot pigweed plant response rating (pigweed; [5]) | Plant response rating (0 to 10; 0 is no effect, 10 is complete control), Redroot pigweed (pigweed; Rate 250 g/ha, Postemergence) | Redroot pigweed plant response rating (pigweed; [7]) | S. Flatsedge plant response rating (smallflower flatsedge; [8]) | S. Flatsedge plant response rating (smallflower flatsedge; [9]) | S. Flatsedge plant response rating (smallflower flatsedge; [10]) | S. Flatsedge plant response rating (smallflower flatsedge; [11]) | S. Flatsedge plant response rating (smallflower flatsedge; Rate 500 g/ha, Pre-emergence, flood test species, scale 0 to 10 (0 no effect, 10 complete control)) | Corn plant response rating (corn; [1]) | Corn plant response rating (0 to 10 scale) (corn; [6]) | Corn plant response rating (corn; [2]) | Plant response rating, Corn (corn; [3]) | Corn plant response rating (corn; [4]) | Corn plant response rating (corn; [5]) | Plant response rating (0 to 10; 0 is no effect, 10 is complete control), Corn (corn; Rate 250 g/ha, Postemergence) | Corn plant response rating (corn; [7]) | Giant foxtail plant response rating (giant foxtail; [1]) | Giant foxtail plant response rating (0 to 10 scale) (giant foxtail; [6]) | Giant foxtail plant response rating (giant foxtail; [2]) | Plant response rating, Giant foxtail (giant foxtail; [3]) | Giant foxtail plant response rating (giant foxtail; [4]) | Giant foxtail plant response rating (giant foxtail; [5]) | Plant response rating (0 to 10; 0 is no effect, 10 is complete control), Giant foxtail (giant foxtail; Rate 250 g/ha, Postemergence) | Giant foxtail plant response rating (giant foxtail; [7])

From patent US6737383B1, “Herbicidal oxadiazolidines” (priority 1999, dated 2004)
